Measurements published in ChEMBL document CHEMBL2375319, “Design, synthesis and structure-activity relationships of 3,5-diaryl-1H-pyrazoles as inhibitors of arylamine N-acetyltransferase” (Bioorg Med Chem Lett, 2013).
Converted amounts (≈) assume the structure as drawn.

How the values were obtained:
[1] = Inhibition of Mycobacterium marinum recombinant arylamine N-acetyltransferase-mediated acetyl coA hydrolysis at 30 uM by DTNB-based spectrophotometric analysis
[2] = Inhibition of Mycobacterium marinum recombinant arylamine N-acetyltransferase-mediated acetyl coA hydrolysis by DTNB-based spectrophotometric analysis
[3] = Competitive inhibition of Mycobacterium marinum recombinant arylamine N-acetyltransferase-mediated acetyl coA hydrolysis by DTNB-based spectrophotometric analysis
[4] = Inhibition of Pseudomonas aeruginosa arylamine N-acetyltransferase
[5] = system: Mycobacterium tuberculosis; assay: Antimycobacterial activity against Mycobacterium tuberculosis after 28 days; format: functional; conditions: 672 h

Molecule `Fc1ccc(-c2cc(-c3cc(F)ccc3F)n[nH]2)cc1` has an inhibition [1] of 29.7% and an IC50 [2] of over 30 µM.

`COc1ccc(O)c(-c2cc(-c3ccc(F)cc3)[nH]n2)c1` showed an inhibition [1] of 59.2% and an IC50 [2] of 21.3 µM.

In the case of `COc1ccc(O)c(-c2cc(-c3ccccc3)[nH]n2)c1`, the inhibition [1] is reported as 53.9% and the IC50 [2] is reported as 12.9 µM.

`COc1ccc(-c2cc(-c3cc(O)cc(O)c3)n[nH]2)cc1` gave an inhibition [1] of 15.6% and an IC50 [2] of over 30 µM.

`COc1ccc(OC)c(-c2cc(-c3ccccc3)[nH]n2)c1` showed an inhibition [1] of 50.7% and an IC50 [2] of 11.7 µM.

Work on `COc1ccc(-c2cc(-c3cc(OC)ccc3OC)n[nH]2)cc1` yielded an inhibition [1] of 29.2% and an IC50 [2] of over 30 µM.

`c1ccc(-c2cc(-c3ccccc3)[nH]n2)cc1` showed an inhibition [1] of 45.2% and an IC50 [2] of over 30 µM.

For `COc1ccc(-c2cc(-c3cc(F)ccc3F)n[nH]2)cc1`, the inhibition [1] was 18.9% and the IC50 [2] was over 30 µM.

Molecule `COc1ccc(-c2cc(-c3cccc(OC)c3)n[nH]2)cc1` has an inhibition [1] of 26.5% and an IC50 [2] of over 30 µM.

`COc1ccc(-c2cc(-c3ccccc3)n[nH]2)cc1` gave an inhibition [1] of 26.5% and an IC50 [2] of over 30 µM.

`COc1cccc(-c2cc(-c3ccc(F)cc3)[nH]n2)c1` showed an inhibition [1] of 61.2% and an IC50 [2] of 17.6 µM.

With `Oc1ccc(F)cc1-c1cc(-c2ccc(F)cc2)[nH]n1` the inhibition [1] was 32.7% and the IC50 [2] was over 30 µM.

With `Fc1ccc(F)c(-c2cc(-c3ccccc3)[nH]n2)c1` the inhibition [1] was 53.5% and the IC50 [2] was 18.8 µM.

Work on `COc1ccc(-c2cc(-c3cc(O)ccc3O)n[nH]2)cc1` yielded an inhibition [1] of 21.5% and an IC50 [2] of over 30 µM.

With `COc1ccc(-c2cc(-c3cc(OC)ccc3O)[nH]n2)cc1` the inhibition [1] was 65.8%, the IC50 [2] was 18.5 µM and the Ki [3] was 23.2 µM. The IC50 [4] was 9.7 µM and the MIC [5] was 34 µM (≈ 10.1 µg/mL).

Work on `COc1ccc(-c2cc(-c3cc(F)ccc3O)n[nH]2)cc1` yielded an inhibition [1] of 46.5% and an IC50 [2] of over 30 µM.
